Measurements as given in patent US20240158446A1, “CYCLIC COMPOUND HAVING SELECTIVE INHIBITORY ACTION ON KRAS OVER HRAS AND NRAS” (CHUGAI SEIYAKU KABUSHIKI KAISHA, priority 2021, published 2024).

What was measured:
[1] = system: human lung cancer strain NCI-H441;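 further: cell proliferation inhibition after four days measured by CellTiter-Glo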
[2] = biological target: GDP-bound NRAS wild-type protein (Homo sapiens, UniProt P01111); experiment: Binding to NRAS by surface plasmon resonance (SPR), Single Cycle Kinetics; details: SPR, GDP-bound NRAS wild-type protein vs GDP-bound KRAS wild-type protein
[3] = biological target: GDP-bound HRAS wild-type protein (Homo sapiens, UniProt P01112); experiment: Binding to HRAS by surface plasmon resonance (SPR), Single Cycle Kinetics; details: SPR, GDP-bound HRAS wild-type protein vs GDP-bound KRAS wild-type protein
[4] = biological target: GDP-bound KRAS wild-type protein (Homo sapiens, UniProt P01116); experiment: Binding to KRAS by surface plasmon resonance (SPR), Single Cycle Kinetics; details: SPR, Single Cycle Kinetics, GDP-bound KRAS wild-type protein; read-out: KRAS KD
Sequence of GDP-bound KRAS wild-type protein (P01116 whole entry): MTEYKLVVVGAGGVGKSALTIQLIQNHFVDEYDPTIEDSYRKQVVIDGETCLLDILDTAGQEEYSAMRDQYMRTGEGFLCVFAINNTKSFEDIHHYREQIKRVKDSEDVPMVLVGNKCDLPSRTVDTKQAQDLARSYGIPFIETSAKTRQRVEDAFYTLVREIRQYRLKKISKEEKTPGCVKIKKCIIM

Sequence of GDP-bound NRAS wild-type protein (P01111 whole entry): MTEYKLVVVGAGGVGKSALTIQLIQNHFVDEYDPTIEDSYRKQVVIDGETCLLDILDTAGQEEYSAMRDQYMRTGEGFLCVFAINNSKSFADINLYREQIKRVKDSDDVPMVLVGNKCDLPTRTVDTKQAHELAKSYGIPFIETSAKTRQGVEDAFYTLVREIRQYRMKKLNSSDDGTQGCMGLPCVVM
Sequence of GDP-bound HRAS wild-type protein (P01112 whole entry): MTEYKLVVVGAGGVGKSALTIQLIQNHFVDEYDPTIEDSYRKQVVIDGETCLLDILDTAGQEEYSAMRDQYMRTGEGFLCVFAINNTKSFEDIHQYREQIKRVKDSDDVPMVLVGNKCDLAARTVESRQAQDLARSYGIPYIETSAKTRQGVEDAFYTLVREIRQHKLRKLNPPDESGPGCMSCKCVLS

| Compound | IC50 [1] [nM] | NRAS/KRAS (ratio of KD value for NRAS to KD value for KRAS) [2] | HRAS/KRAS (ratio of KD value for HRAS to KD value for KRAS) [3] | Kd [4] [nM] |
| --- | --- | --- | --- | --- |
| CC[C@H](C)[C@@H]1NC(=O)[C@H](CC(C)C)N(C)C(=O)C[C@@H](C(=O)N(C)C)N(C)C(=O)[C@H](C2CCCC2)N(C)C(=O)C2(CC(C)(C)C2)NC(=O)[C@@H]2C[C@H](C)CN2C(=O)[C@H](CCc2ccc(C(F)(F)F)c(OC)c2)NC(=O)CN(C)C(=O)[C@H](Cc2ccc(C)cc2)N2CC/C=C\C[C@@H](C2=O)N(C)C(=O)[C@@H]2CCCN2C1=O [PP2409] | 31.9 | A (a compound having 10 or more and less than 20 is denoted as A) | B (a compound having 3 or more and less than 10 is denoted as B) | 0.48 |
| CC[C@H](C)[C@@H]1NC(=O)[C@H](CC(C)C)N(C)C(=O)C[C@@H](C(=O)N(C)CC)N(C)C(=O)[C@H](C2CCCC2)N(C)C(=O)C2(CC(C)(C)C2)NC(=O)[C@@H]2C[C@H](C)CN2C(=O)[C@H](CCc2ccc(C(F)(F)F)c(OC)c2)NC(=O)CN(C)C(=O)[C@H](Cc2ccc(C)cc2)N2CC/C=C\C[C@@H](C2=O)N(C)C(=O)[C@@H]2CCCN2C1=O [PP2410] | 108 | A (a compound having 10 or more and less than 20 is denoted as A) | A (a compound having 10 or more and less than 20 is denoted as A) | 1.1 |
| CC[C@H](C)[C@@H]1NC(=O)[C@H](CC(C)C)N(C)C(=O)C[C@@H](C(=O)N(C)CC)N(C)C(=O)[C@H](C2CCCC2)N(C)C(=O)C2(CC(C)(C)C2)NC(=O)[C@@H]2C[C@H](C)CN2C(=O)[C@H](CCc2cc(F)c(C(F)(F)F)c(F)c2)NC(=O)CN(C)C(=O)[C@H](Cc2ccc(C)cc2)N2CC/C=C\C[C@@H](C2=O)N(C)C(=O)[C@@H]2CCCN2C1=O [PP2411] | 91.4 | A (a compound having 10 or more and less than 20 is denoted as A) | A (a compound having 10 or more and less than 20 is denoted as A) | 1 |
| CCO[C@H](C)[C@@H]1NC(=O)[C@H](CC(C)C)N(C)C(=O)C[C@@H](C(=O)N(C)C)N(C)C(=O)[C@H](C2CCCC2)N(C)C(=O)C2(CC(C)(C)C2)NC(=O)[C@@H]2C[C@H](C)CN2C(=O)[C@H](CCc2ccc(C(F)(F)F)c(OC)c2)NC(=O)CN(C)C(=O)[C@H](Cc2ccc(C)cc2)N2CC/C=C\C[C@@H](C2=O)N(C)C(=O)CN(C)C1=O [PP2412] | 21 | A (a compound having 10 or more and less than 20 is denoted as A) | B (a compound having 3 or more and less than 10 is denoted as B) | 0.15 |
| CCO[C@H](C)[C@@H]1NC(=O)[C@H](CC(C)C)N(C)C(=O)C[C@@H](C(=O)N(C)CC)N(C)C(=O)[C@H](C2CCCC2)N(C)C(=O)C2(CC(C)(C)C2)NC(=O)[C@@H]2C[C@H](C)CN2C(=O)[C@H](CCc2ccc(C(F)(F)F)c(OC)c2)NC(=O)CN(C)C(=O)[C@H](Cc2ccc(C)cc2)N2CC/C=C\C[C@@H](C2=O)N(C)C(=O)CN(C)C1=O [PP2413] | 115 | A (a compound having 10 or more and less than 20 is denoted as A) | A (a compound having 10 or more and less than 20 is denoted as A) | 0.25 |
| CCO[C@H](C)[C@@H]1NC(=O)[C@H](CC(C)C)N(C)C(=O)C[C@@H](C(=O)N(C)CC)N(C)C(=O)[C@H](C2CCCC2)N(C)C(=O)C2(CC(C)(C)C2)NC(=O)[C@@H]2C[C@H](C)CN2C(=O)[C@H](CCc2cc(F)c(C(F)(F)F)c(F)c2)NC(=O)CN(C)C(=O)[C@H](Cc2ccc(C)cc2)N2CC/C=C\C[C@@H](C2=O)N(C)C(=O)CN(C)C1=O [PP2414] | 9.8 | A (a compound having 10 or more and less than 20 is denoted as A) | A (a compound having 10 or more and less than 20 is denoted as A) | 0.33 |
| CCCO[C@H](C)[C@@H]1NC(=O)[C@H](CC(C)C)N(C)C(=O)C[C@@H](C(=O)N(C)C)N(C)C(=O)[C@H](C2CCCC2)N(C)C(=O)C2(CC(C)(C)C2)NC(=O)[C@@H]2C[C@H](C)CN2C(=O)[C@H](CCc2ccc(C(F)(F)F)c(OC)c2)NC(=O)CN(C)C(=O)[C@H](Cc2ccc(C)cc2)N2CC/C=C\C[C@@H](C2=O)N(C)C(=O)CN(C)C1=O [PP2415] | 10.3 | AA (a compound having 20 or more is denoted as AA) | A (a compound having 10 or more and less than 20 is denoted as A) | 0.093 |
| CCCO[C@H](C)[C@@H]1NC(=O)[C@H](CC(C)C)N(C)C(=O)C[C@@H](C(=O)N(C)CC)N(C)C(=O)[C@H](C2CCCC2)N(C)C(=O)C2(CC(C)(C)C2)NC(=O)[C@@H]2C[C@H](C)CN2C(=O)[C@H](CCc2ccc(C(F)(F)F)c(OC)c2)NC(=O)CN(C)C(=O)[C@H](Cc2ccc(C)cc2)N2CC/C=C\C[C@@H](C2=O)N(C)C(=O)CN(C)C1=O [PP2416] | 33.1 | A (a compound having 10 or more and less than 20 is denoted as A) | B (a compound having 3 or more and less than 10 is denoted as B) | 0.29 |
| CCCO[C@H](C)[C@@H]1NC(=O)[C@H](CC(C)C)N(C)C(=O)C[C@@H](C(=O)N(C)CC)N(C)C(=O)[C@H](C2CCCC2)N(C)C(=O)C2(CC(C)(C)C2)NC(=O)[C@@H]2C[C@H](C)CN2C(=O)[C@H](CCc2cc(F)c(C(F)(F)F)c(F)c2)NC(=O)CN(C)C(=O)[C@H](Cc2ccc(C)cc2)N2CC/C=C\C[C@@H](C2=O)N(C)C(=O)CN(C)C1=O [PP2417] | 15.9 | A (a compound having 10 or more and less than 20 is denoted as A) | A (a compound having 10 or more and less than 20 is denoted as A) | 0.3 |
| CCO[C@H](C)[C@@H]1NC(=O)[C@H](CC(C)C)N(C)C(=O)C[C@@H](C(=O)N(C)C)N(C)C(=O)[C@H](C2CCCC2)N(C)C(=O)C2(CC(C)(C)C2)NC(=O)[C@@H]2C[C@H](C)CN2C(=O)[C@H](CCc2ccc(C(F)(F)F)c(OC)c2)NC(=O)CN(C)C(=O)[C@H](Cc2ccc(C)cc2)N2CC/C=C\C[C@@H](C2=O)N(C)C(=O)[C@@H]2CCCN2C1=O [PP2418] | 132 | A (a compound having 10 or more and less than 20 is denoted as A) | B (a compound having 3 or more and less than 10 is denoted as B) | 0.97 |
| CCO[C@H](C)[C@@H]1NC(=O)[C@H](CC(C)C)N(C)C(=O)C[C@@H](C(=O)N(C)CC)N(C)C(=O)[C@H](C2CCCC2)N(C)C(=O)C2(CC(C)(C)C2)NC(=O)[C@@H]2C[C@H](C)CN2C(=O)[C@H](CCc2ccc(C(F)(F)F)c(OC)c2)NC(=O)CN(C)C(=O)[C@H](Cc2ccc(C)cc2)N2CC/C=C\C[C@@H](C2=O)N(C)C(=O)[C@@H]2CCCN2C1=O [PP2419] | 125 | A (a compound having 10 or more and less than 20 is denoted as A) | A (a compound having 10 or more and less than 20 is denoted as A) | 2 |
| CCOC[C@H]1C(=O)N[C@@H]([C@@H](C)OCC)C(=O)N(C)CC(=O)N(C)[C@H]2C/C=C\CCN(C2=O)[C@@H](Cc2ccc(C)cc2)C(=O)N(C)CC(=O)N[C@@H](CCc2cc(F)c(C(F)(F)F)c(F)c2)C(=O)N2C[C@@H](C)C[C@H]2C(=O)NC2(CC(C)(C)C2)C(=O)N(C)[C@@H](C2CCCC2)C(=O)N(C)[C@H](C(=O)N(C)CC)CC(=O)N1C [PP2422] | 117 | A (a compound having 10 or more and less than 20 is denoted as A) | A (a compound having 10 or more and less than 20 is denoted as A) | 0.46 |
| CCCOC[C@H]1C(=O)N[C@@H]([C@@H](C)OCC)C(=O)N(C)CC(=O)N(C)[C@H]2C/C=C\CCN(C2=O)[C@@H](Cc2ccc(C)cc2)C(=O)N(C)CC(=O)N[C@@H](CCc2cc(F)c(C(F)(F)F)c(F)c2)C(=O)N2C[C@@H](C)C[C@H]2C(=O)NC2(CC(C)(C)C2)C(=O)N(C)[C@@H](C2CCCC2)C(=O)N(C)[C@H](C(=O)N(C)CC)CC(=O)N1C [PP2424] | 50.9 | A (a compound having 10 or more and less than 20 is denoted as A) | A (a compound having 10 or more and less than 20 is denoted as A) | 0.37 |
| CCCO[C@H](C)[C@@H]1NC(=O)[C@H](COCC)N(C)C(=O)C[C@@H](C(=O)N(C)CC)N(C)C(=O)[C@H](C2CCCC2)N(C)C(=O)C2(CC(C)(C)C2)NC(=O)[C@@H]2C[C@H](C)CN2C(=O)[C@H](CCc2ccc(C(F)(F)F)c(OC)c2)NC(=O)CN(C)C(=O)[C@H](Cc2ccc(C)cc2)N2CC/C=C\C[C@@H](C2=O)N(C)C(=O)CN(C)C1=O [PP2425] | 51.7 | AA (a compound having 20 or more is denoted as AA) | A (a compound having 10 or more and less than 20 is denoted as A) | 0.23 |
| CCCO[C@H](C)[C@@H]1NC(=O)[C@H](COCC)N(C)C(=O)C[C@@H](C(=O)N(C)CC)N(C)C(=O)[C@H](C2CCCC2)N(C)C(=O)C2(CC(C)(C)C2)NC(=O)[C@@H]2C[C@H](C)CN2C(=O)[C@H](CCc2cc(F)c(C(F)(F)F)c(F)c2)NC(=O)CN(C)C(=O)[C@H](Cc2ccc(C)cc2)N2CC/C=C\C[C@@H](C2=O)N(C)C(=O)CN(C)C1=O [PP2426] | 48 | AA (a compound having 20 or more is denoted as AA) | A (a compound having 10 or more and less than 20 is denoted as A) | 0.31 |
